Reference: patent US20150023989A1, “NEW ANTIBODY DRUG CONJUGATES (ADCS) AND THE USE THEREOF” (SEATTLE GENETICS, INC., priority 2011, published 2015)

Assays:
P-glycoprotein (P-gp) = target: T1, P-glycoprotein (P-gp) (Homo sapiens, UniProt P08183); assay: Flux assay for P-gp substrate properties in L-MDR1 cells; type: in vitro ADME; conditions: L-MDR1 cells (P-gp overexpressing LLC-PK1), 2 hours incubation
T1 construct: expressed in transfected cells; host or cells: LLC-PK1 (pig kidney) cells transfected with human MDR1 (L-MDR1)
T1 sequence (P08183 whole entry): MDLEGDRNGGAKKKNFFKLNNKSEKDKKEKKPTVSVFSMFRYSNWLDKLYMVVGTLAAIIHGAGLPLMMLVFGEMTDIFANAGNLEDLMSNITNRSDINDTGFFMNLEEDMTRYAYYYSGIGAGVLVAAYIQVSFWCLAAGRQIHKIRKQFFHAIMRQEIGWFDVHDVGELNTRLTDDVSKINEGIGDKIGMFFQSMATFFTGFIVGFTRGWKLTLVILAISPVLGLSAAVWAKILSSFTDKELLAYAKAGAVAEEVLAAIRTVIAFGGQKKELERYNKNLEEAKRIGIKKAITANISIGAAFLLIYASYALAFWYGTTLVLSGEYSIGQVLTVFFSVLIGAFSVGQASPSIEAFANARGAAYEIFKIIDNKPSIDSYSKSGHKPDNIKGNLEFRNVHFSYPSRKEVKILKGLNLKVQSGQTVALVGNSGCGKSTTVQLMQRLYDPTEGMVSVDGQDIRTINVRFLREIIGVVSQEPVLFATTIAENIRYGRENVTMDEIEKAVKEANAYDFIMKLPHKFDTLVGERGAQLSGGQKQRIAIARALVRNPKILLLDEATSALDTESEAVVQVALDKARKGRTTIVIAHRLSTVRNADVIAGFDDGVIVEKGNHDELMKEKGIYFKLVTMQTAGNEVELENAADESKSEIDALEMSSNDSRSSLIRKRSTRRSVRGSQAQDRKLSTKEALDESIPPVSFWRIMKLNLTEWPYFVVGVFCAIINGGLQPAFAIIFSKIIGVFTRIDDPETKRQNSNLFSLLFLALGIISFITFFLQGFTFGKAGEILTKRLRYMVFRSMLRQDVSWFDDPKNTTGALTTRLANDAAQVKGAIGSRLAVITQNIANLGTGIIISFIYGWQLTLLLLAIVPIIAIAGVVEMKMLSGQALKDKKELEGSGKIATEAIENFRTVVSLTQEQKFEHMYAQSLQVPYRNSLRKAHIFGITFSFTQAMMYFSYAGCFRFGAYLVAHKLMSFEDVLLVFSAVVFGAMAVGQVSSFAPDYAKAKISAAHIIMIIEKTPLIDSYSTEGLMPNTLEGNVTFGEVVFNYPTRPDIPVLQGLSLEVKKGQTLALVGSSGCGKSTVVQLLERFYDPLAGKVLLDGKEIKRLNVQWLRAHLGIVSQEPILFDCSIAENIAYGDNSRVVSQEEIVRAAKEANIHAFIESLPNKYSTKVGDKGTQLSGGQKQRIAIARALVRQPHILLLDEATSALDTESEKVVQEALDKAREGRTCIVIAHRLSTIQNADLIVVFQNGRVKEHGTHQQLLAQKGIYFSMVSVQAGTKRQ
Experimental: The substrate properties of a substance for P-gp (ABCB1) were determined by means of a flux assay using LLC-PK1 cells which overexpress P-gp (L-MDR1 cells) [A. H. Schinkel et al., J. Clin. Invest. 96, 1698-1705 (1995)]. For this purpose, the LLC-PK1 cells or L-MDR1 cells were cultured on 96-well filter plates for 3-4 days. For determination of the permeation, the respective test substance, alone or in the presence of an inhibitor (such as Ivermectin or Verapamil, for example), was applied in a HEPES buffer to the cells either apically (A) or basally (B) and incubated for 2 hours. After 0 hours and after 2 hours, samples were taken from the cis and trans compartments. The samples were separated by HPLC using reverse phase columns. The HPLC system was coupled via a Turbo Ion Spray Interface to a Triple Quadropole mass spectrometer API 3000 (Applied Biosystems Applera, Darmstadt, Germany). The permeability was evaluated on the basis of a Papp value which was calculated using the formula published by Schwab et al. [D. Schwab et al., J. Med. Chem. 46, 1716-1725 (2003)].
Table 8 below lists permeability data for representative working examples from this assay, which was carried out in L-MDR1 cells: […]

tubulin = assay: Fluorescence-based microtubule polymerisation assay; type: biochemical; conditions: rate at 1 μM MMAF set at 100%
Experimental: Tubulin polymerization was investigated using the “Fluorescence-based Microtubule Polymerisation Assay Kit” from Cytoskeleton (Denver, Colo., USA; order number: BK011). With this assay, GTP is added to unpolymerized tubulin, allowing polymerization to take place spontaneously. The assay is based on the binding of the fluorophore 4′,6-diamidino-2-phenylindole (DAPI) to tubulin. Free and bound DAPI can be differentiated on the basis of different emission spectra.
In addition to the buffer control, paclitaxel, with a polymerization-increasing effect, and vinblastin, with a polymerization inhibiting effect, were run additionally as assay controls. Measurement was carried out using 96-well plates with a half base area. The kinetics of the tubulin polymerization were monitored in a Fluorimeter at 37° C. for 1 hour. The excitation wavelength was 355 nm, and emission was monitored at 460 nm. For the region of linear increase within the first 10 minutes, a calculation was made of the change in fluorescence per minute (ΔF/min), which represents the polymerization rate of the microtubuli. The potency of the test substances was quantified on the basis of their respective reduction of the polymerization rate. Table 6 below gives data for the influence of representative working examples on tubulin polymerization.

[1] = Flux assay using Caco-2 cells (cell permeability); type: in vitro ADME; conditions: human, 2 hours incubation
Experimental: The cell permeability of a substance can be investigated by means of in vitro testing in a flux assay using Caco-2 cells [M. D. Troutman and D. R. Thakker, Pharm. Res. 20 (8), 1210-1224 (2003)]. For this purpose, the cells were cultured for 15-16 days on 24-well filter plates. For the determination of permeation, the respective working example was applied in a HEPES buffer to the cells either apically (A) or basally (B) and incubated for 2 hours. After 0 hours and after 2 hours, samples were taken from the cis and trans compartments. The samples were separated by HPLC (Agilent 1200, Böblingen, Germany) using reverse phase columns. The HPLC system was coupled via a Turbo Ion Spray Interface to a Triple Quadropol mass spectrometer API 4000 (Applied Biosystems Applera, Darmstadt, Germany). The permeability was evaluated on the basis of a Papp value, which was calculated using the formula published by Schwab et al. [D. Schwab et al., J. Med. Chem. 46, 1716-1725 (2003)].

## CC[C@H](C)[C@@H]([C@@H](CC(=O)N1CCC[C@H]1[C@H](OC)[C@@H](C)C(=O)N[C@@H](Cc1c[nH]c2ccccc12)C(=O)O)OC)N(C)C(=O)[C@@H](NC(=O)[C@H](C(C)C)N(C)CCCC(=O)NNC(=O)CCCCCN1C(=O)CC(SC[C@H](N)C(=O)O)C1=O)C(C)C (stereo partly drawn) [Example 22, N-(4-{2-[6-(3-{[(2R)-2-Amino-2-carboxyethyl]sulphanyl}-2,5-dioxopyrrolidin-1-yl)hexanoyl]hydrazino}-4-oxobutyl)-N-methyl-L-valyl-N-[(3R,4S,5S)-1-{(2S)-2-[(1R,2R)-3-{[(1S)-1-carboxy-2-(1H-indol-3-yl)ethyl]amino}-1-methoxy-2-methyl-3-oxopropyl]pyrrolidin-1-yl}-3-methoxy-5-methyl-1-oxoheptan-4-yl]-N-methyl-L-valinamide]
P-glycoprotein (P-gp)
  Papp (B-A): 0.4 ×10⁻⁶ cm/s
tubulin; toxophore 1 μM
  Tubulin polymerization in the presence of toxophore: 109%
tubulin; toxophore 10 μM
  Tubulin polymerization in the presence of toxophore: 27%
[1]
  Papp B→A at 2 h: 0.2 ×10⁻⁶ cm/s
